# Measurements taken from article PMC3265452 (PLoS Neglected Tropical Diseases, 2012).
# Structures can show the parent of a compound that is named as a salt.
# Target: AaDOP2 (Aedes aegypti, UniProt H6D5H2)
# Test: AaDOP2 antagonist screen of the LOPAC1280 library (HEK-CRELuc-Aadop2 cells, luminescence)
# Assay type: cell-based
# Details: not given
# Sequence of AaDOP2 (H6D5H2 1-476): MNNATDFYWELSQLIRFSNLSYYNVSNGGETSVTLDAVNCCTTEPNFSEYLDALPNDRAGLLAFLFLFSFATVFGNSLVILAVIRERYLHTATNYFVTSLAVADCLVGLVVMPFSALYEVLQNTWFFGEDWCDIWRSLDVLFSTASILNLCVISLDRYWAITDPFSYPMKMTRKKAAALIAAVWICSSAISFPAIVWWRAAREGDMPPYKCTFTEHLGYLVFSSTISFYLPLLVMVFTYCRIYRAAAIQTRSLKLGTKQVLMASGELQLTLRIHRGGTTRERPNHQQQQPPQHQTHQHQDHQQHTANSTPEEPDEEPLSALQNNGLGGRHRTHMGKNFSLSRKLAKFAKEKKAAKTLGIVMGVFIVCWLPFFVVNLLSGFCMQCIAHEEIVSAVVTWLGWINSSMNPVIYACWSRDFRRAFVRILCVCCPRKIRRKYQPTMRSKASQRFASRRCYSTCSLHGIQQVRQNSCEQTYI
row,Structure (SMILES),"Compound effect (percent receptor signaling in presence of test compound, relative lux units relative to the SCH23390 control)"
1,"CCCCNc1ccc(C(=O)OCCN(C)C)cc1 [Compound 1202, Tetracaine hydrochloride]",78
2,"CC1=NS(=O)(=O)c2cc(Cl)ccc2N1 [Compound 425, Diazoxide]",115
3,"CC(C)C[C@H]1C(=O)N2CCC[C@H]2[C@]2(O)O[C@](NC(=O)[C@@H]3C=C4c5cccc6[nH]c(Br)c(c56)C[C@H]4N(C)C3)(C(C)C)C(=O)N12.CS(=O)(=O)O [Compound 162, (+)-Bromocriptine methanesulfonate]",37
4,"CN(C)C/C=C(/c1ccc(Br)cc1)c1cccnc1 [Compound 1280, Zimelidine dihydrochloride]",80
5,"Cl.N=c1c[n+](N2CCOCC2)[n-]o1 [Compound 830, 3-Morpholinosydnonimine hydrochloride]",90
6,"CCCCCCC(C)(C)c1ccc([C@@H]2C[C@H](O)CC[C@H]2CCCO)c(O)c1 [Compound 227, CP55940]",85
7,"C[N+](C)(C)CCO.[Br-] [Compound 234, Choline bromide]",89
8,"COc1cc(CNC(=O)CCCCCCC(C)C)ccc1O [Compound 735, Dihydrocapsaicin]",102
9,"CC(=O)C(C)=NO [Compound 153, 2,3-Butanedione monoxime]",131
10,"CC1(C)CCC2=C(O1)c1ccccc1C(=O)C2=O [Compound 696, beta-Lapachone]",14
11,"C[C@]12CC[C@H](OS(=O)(=O)[O-])CC1=CC[C@@H]1[C@@H]2CC[C@]2(C)C(=O)CC[C@@H]12.[Na+] [Compound 390, Dehydroisoandrosterone 3-sulfate sodium]",94
12,"COc1ccc2c(c1)c(CC(=O)O)c(C)n2C(=O)c1ccccc1 [Compound 155, 1-benzoyl-5-methoxy-2-methylindole-3-acetic acid]",105
13,"C[C@@]12N[C@@H](Cc3ccccc31)c1ccccc12.O=C(O)/C=C\C(=O)O [Compound 817, (-)-MK-801 hydrogen maleate]",98
14,"CCC1(c2ccc(N)cc2)CCC(=O)NC1=O (racemic) [Compound 109, (±)-p-Aminoglutethimide]",106
15,"CCCCC[C@H](CC(=O)NO)C(=O)N[C@H](C(=O)N1CCC[C@H]1CO)C(C)C [Compound 73, Actinonin]",96
16,"NC(Cc1cc(O)c(O)cc1O)C(=O)O (racemic) [Compound 584, 6-Hydroxy-DL-DOPA]",101
17,"O=C(O)c1ccccc1Nc1ccccc1 [Compound 2, N-Phenylanthranilic acid]",100
18,"Cc1cc(C(C)(C)C)cc(C)c1CC1=NCCN1 [Compound 1271, Xylometazoline hydrochloride]",85
19,"CC(=O)[C@]1(O)Cc2c(O)c3c(c(O)c2[C@@H](O[C@H]2C[C@H](N)[C@H](O)[C@H](C)O2)C1)C(=O)c1ccccc1C3=O [Compound 636, Idarubicin]",17

row,Structure (SMILES),"Compound effect (percent receptor signaling in presence of test compound, relative lux units relative to the SCH23390 control)"
1,"CC[C@@H]1C(=O)OC[C@@H]1Cc1cncn1C [Compound 960, Pilocarpine nitrate]",96
2,"O=C(O)c1cc(O)cc(C(=O)O)n1 [Compound 302, Chelidamic acid]",82
3,"CN1C[C@H](C(=O)N[C@]2(C)O[C@@]3(O)[C@@H]4CCCN4C(=O)[C@H](Cc4ccccc4)N3C2=O)C[C@@H]2c3cccc4[nH]cc(c34)C[C@H]21 [Compound 372, Dihydroergotamine methanesulfonate]",46
4,"CC(C)[C@H](CO)Nc1nc(Nc2cccc(Cl)c2)c2ncn(C(C)C)c2n1 [Compound 942, Purvalanol A]",7
5,"CC(NC(C)(C)C)C(=O)c1cccc(Cl)c1 (centres unmarked) [Compound 201, Bupropion hydrochloride]",77
6,"CNc1ncnc2c1ncn2[C@@H]1O[C@H](CO)[C@@H](O)[C@H]1O [Compound 780, N6-Methyladenosine]",80
7,"CCCCOC(=O)NS(=O)(=O)c1sc(CC(C)C)cc1-c1ccc(Cn2c(CC)nc3c(C)cc(C)nc32)cc1 [Compound 694, L-162,313]",99
8,"Cc1cc(NC(=O)Nc2ccc3c(ccn3C)c2)sn1 [Compound 274, SB 204741]",95
9,"CC(C)C(=O)Nc1ccc([N+](=O)[O-])c(C(F)(F)F)c1 [Compound 536, Flutamide]",99
10,"CCCn1c(=O)c2[nH]c(-c3ccc(S(=O)(=O)O)cc3)nc2n(CCC)c1=O [Compound 119, 1,3-Dipropyl-8-p-sulfophenylxanthine]",91
11,"O=c1c2ccccc2[nH]c(=S)n1CCN1CCC(=C(c2ccc(F)cc2)c2ccc(F)cc2)CC1 [Compound 397, Diacylglycerol Kinase Inhibitor II]",74
12,"C[N+](C)(C)CCC(=O)c1cccc2ccccc12.[I-] [Compound 870, 2-(alpha-Naphthoyl)ethyltrimethylammonium iodide]",74
13,"CS(=O)(=O)O.Cc1c(C(=O)c2cccc3ccccc23)c2cccc3c2n1[C@H](CN1CCOCC1)CO3 [Compound 1264, (R)-(+)-WIN 55,212-2 mesylate]",58
14,"Cn1c(=O)c2[nH]cnc2n(C)c1=O [Compound 1154, Theophylline]",98
15,"N=C1Sc2ccccc2C2=NCCCN12 [Compound 935, PD 404,182]",101
16,"CCNC(=O)N1CCN(CCCC(c2ccc(F)cc2)c2ccc(F)cc2)CC1 [Compound 76, Amperozide hydrochloride]",17
17,"Br.CO[C@H]1CC=C2CCN3CCC4=C(CC(=O)OC4)[C@]23C1 [Compound 463, Dihydro-beta-erythroidine hydrobromide]",103
18,"C[C@@]12C(=O)OC(=O)[C@]1(C)[C@H]1CC[C@@H]2O1 [Compound 297, Cantharidin]",96
19,"CNCCC(Oc1ccc(C(F)(F)F)cc1)c1ccccc1 (centres unmarked) [Compound 544, Fluoxetine hydrochloride]",118

# Same assay, conditions: 10 µM compound, 300 nM dopamine, 2 hr; hit = compound effect <20
row,Structure (SMILES),"Compound effect (percent receptor signaling in presence of test compound, relative lux units relative to the SCH23390 control) [%]"
1,"C[C@H](Cc1ccc(OCC(=O)[O-])cc1)NC[C@H](O)c1cccc(Cl)c1.[Na+] [Compound 212, BRL 37344 sodium]",87
2,"Br.CN1CCc2cc(O)cc3c2[C@H]1Cc1ccc(O)c(O)c1-3 [Compound 437, R(-)-2,10,11-Trihydroxyaporphine hybrobromide]",71
3,"Cl.N[C@@H](CCC(=O)O)C(=O)O [Compound 549, L-Glutamic acid hydrochloride]",93
4,"Cl.Cl.Fc1ccc(C(OCCN2CCN(CCCc3ccccc3)CC2)c2ccc(F)cc2)cc1 [Compound 445, GBR-12909 dihydrochloride]",59
5,"CCNC(=O)[C@H]1O[C@@H](n2cnc3c(NCc4ccccc4)ncnc32)[C@H](O)[C@@H]1O [Compound 208, N6-Benzyl-5'-N-ethylcarboxamidoadenosine]",108
6,"CC(N)=O [Compound 17, Acetamide]",108
7,"Nc1ccc2c3c(cccc13)C(=O)NC2=O [Compound 23, 4-Amino-1,8-naphthalimide]",104
8,"NC(C(=O)O)C(O)C(=O)O (racemic) [Compound 585, DL-threo-beta-hydroxyaspartic acid]",118
9,"CCN(CC)c1ncnc2c1ncn2[C@@H]1O[C@H](COP(=O)([O-])OP(=O)([O-])C(Br)(Br)P(=O)([O-])O)[C@@H](O)[C@H]1O.[Na+].[Na+].[Na+] [Compound 151, ARL 67156 trisodium salt]",115
10,"O=C1Nc2ccccc2/C1=C1/Nc2ccccc2/C1=N\O [Compound 630, Indirubin-3'-oxime]",23
11,"N.S=C(S)N1CCCC1 [Compound 984, Ammonium pyrrolidinedithiocarbamate]",85

# Same assay, conditions: read-out: % of the SCH23390 effect (percent inhibition of receptor response relative to the SCH23390 control)
row,Structure (SMILES),inhibition at 10 µM [%]
1,"CC1(C)CCC2=C(O1)c1ccccc1C(=O)C2=O [Compound 696, beta-Lapachone]",86
2,"CC(=O)[C@]1(O)Cc2c(O)c3c(c(O)c2[C@@H](O[C@H]2C[C@H](N)[C@H](O)[C@H](C)O2)C1)C(=O)c1ccccc1C3=O [Compound 636, Idarubicin]",83
3,"CC(C)[C@H](CO)Nc1nc(Nc2cccc(Cl)c2)c2ncn(C(C)C)c2n1 [Compound 942, Purvalanol A]",93
4,"CCNC(=O)N1CCN(CCCC(c2ccc(F)cc2)c2ccc(F)cc2)CC1 [Compound 76, Amperozide hydrochloride]",83
